Our source for the GI50 and TGI values is PubChem BioAssay (NCI).

Some test systems named below: SF-539 CNS; NCI-H226 lung; DU-145 prostate; SNB-19 CNS; NCI-H522 lung; SK-OV-3 ovarian; COLO 205 colon; HS 578T breast.
Holding throughout (assay): NCI tumour cell line growth inhibition, 48 h

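Grown in 96-well plates, cells were treated for 48 hours with each compound at five concentrations. Insufficient inhibition: endpoint recorded as highest concentration tested. The concentration for 50% growth inhibition is given as GI50. TGI: total growth inhibition.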

Turning to `CN(C)CCN1C(=O)c2cccc3c(N)ccc(c23)C1=O`, the GI50 in the assay with SF-539 CNS was 9.14 µM; in the assay on NCI-H226 lung it was 7.69 µM; in the assay with DU-145 prostate it was 13.6 µM; in the assay with SNB-19 CNS, 14.3 µM; with NCI-H522 lung it was 7.12 µM; with SK-OV-3 ovarian, 15.9 µM. The figures for the GI50 in the assay on COLO 205 colon and in the assay with HS 578T breast were 8.18 µM and 15.7 µM, respectively. For the same molecule, the TGI in the assay on SF-539 CNS, in the assay on NCI-H226 lung, with DU-145 prostate, with SNB-19 CNS, in the assay on NCI-H522 lung and in the assay with SK-OV-3 ovarian was more than 25 µM throughout. Moreover, the TGI in the assay on COLO 205 colon and in the assay on HS 578T breast was more than 25 µM in each case.
As to `c1ccc(CCCNc2nnnc3ccccc23)cc1`, the TGI with SF-539 CNS, in the assay on NCI-H226 lung, in the assay on DU-145 prostate, with SNB-19 CNS, in the assay with NCI-H522 lung and with SK-OV-3 ovarian was more than 100 µM throughout. For the same molecule, the TGI in the assay with COLO 205 colon and in the assay with HS 578T breast was more than 100 µM in each case.
For `COc1ccc2c(c1)CC[C@@H]1[C@@H]2CC[C@]2(C)c3[nH]ncc3C[C@@H]12`, the GI50 in the assay with SF-539 CNS was 14.8 µM; with NCI-H226 lung it was 16.6 µM; in the assay on DU-145 prostate it was 20.6 µM; in the assay with SNB-19 CNS, 21.4 µM; in the assay with NCI-H522 lung it was 10.3 µM; with SK-OV-3 ovarian it was 35.7 µM. The GI50 was 14.5 µM in the assay with COLO 205 colon and 17.5 µM in the assay on HS 578T breast. Also, the TGI is 42 µM in the assay with SF-539 CNS; more than 50 µM in the assay with NCI-H226 lung; more than 50 µM in the assay on DU-145 prostate; more than 50 µM in the assay with SNB-19 CNS; 27.4 µM with NCI-H522 lung; more than 50 µM in the assay on SK-OV-3 ovarian. Moreover, the TGI in the assay on COLO 205 colon and in the assay with HS 578T breast was more than 50 µM in each case.
Consider `O=C(C[C@@]1(O)C(=O)Nc2c(Cl)ccc(Cl)c21)c1ccc(C2CC2)cc1`, for which the GI50 in the assay on SF-539 CNS is 0.286 µM; with NCI-H226 lung, 1.54 µM; in the assay with DU-145 prostate, 0.492 µM; with SNB-19 CNS, 0.69 µM; with NCI-H522 lung, 0.0682 µM; in the assay on SK-OV-3 ovarian, 0.613 µM. Besides, the GI50 is 0.298 µM in the assay on COLO 205 colon and 0.305 µM in the assay with HS 578T breast. Moreover, the TGI with SF-539 CNS was determined as 3.64 µM; in the assay with NCI-H226 lung it was 19.7 µM; in the assay with DU-145 prostate, 17.1 µM; in the assay with SNB-19 CNS, 18.1 µM; in the assay on NCI-H522 lung, 14.1 µM; in the assay on SK-OV-3 ovarian it was 39.1 µM. For the same molecule, the TGI with COLO 205 colon amounted to 2.13 µM; with HS 578T breast, 10 µM.
Consider `COc1ccc2[nH]c(-c3ccccc3)c(C=C(C#N)C#N)c2c1`, for which the GI50 in the assay on SF-539 CNS was 2.94 µM; with NCI-H226 lung, 3.51 µM; with DU-145 prostate, 6.52 µM; in the assay on SNB-19 CNS, 6.04 µM; with NCI-H522 lung, 4.57 µM; in the assay with SK-OV-3 ovarian it was 4.82 µM. The GI50 in the assay on COLO 205 colon was 2.11 µM; in the assay with HS 578T breast it was 2.35 µM. Moreover, the TGI in the assay on SF-539 CNS is 22 µM; with NCI-H226 lung, 57.6 µM; with DU-145 prostate it was more than 100 µM; in the assay with SNB-19 CNS, more than 100 µM; in the assay on NCI-H522 lung it was more than 100 µM; in the assay on SK-OV-3 ovarian, 35.8 µM. Besides, the TGI turned out to be 6.83 µM with COLO 205 colon and 25.4 µM in the assay with HS 578T breast.
For `O=S(=O)(CC#CCCCOCC#Cc1ccccc1C#CCS(=O)(=O)c1ccccc1)c1ccccc1`, the GI50 with SF-539 CNS was 22.9 µM; in the assay with NCI-H226 lung it was 16.6 µM; with DU-145 prostate it was 44.5 µM; in the assay on SNB-19 CNS it was more than 100 µM; in the assay on NCI-H522 lung, 14.6 µM; in the assay with SK-OV-3 ovarian, more than 100 µM. The GI50 was 72.3 µM in the assay with COLO 205 colon and 35.2 µM in the assay with HS 578T breast. Besides, the TGI in the assay with SF-539 CNS is 45.3 µM; with NCI-H226 lung it was 45.7 µM; in the assay with DU-145 prostate, more than 100 µM; with SNB-19 CNS, more than 100 µM; in the assay on NCI-H522 lung it was 33 µM; with SK-OV-3 ovarian it was more than 100 µM. In addition, the TGI with COLO 205 colon and with HS 578T breast was more than 100 µM throughout.
On to `CCC(C(=O)c1cccs1)C(O)(C(F)(F)F)C(F)(F)F` (centres undefined), for which the TGI with SF-539 CNS, in the assay with NCI-H226 lung, with DU-145 prostate, in the assay with SNB-19 CNS, in the assay on NCI-H522 lung and in the assay on SK-OV-3 ovarian was more than 100 µM throughout. In addition, the TGI with COLO 205 colon and in the assay with HS 578T breast was more than 100 µM each time.
With `OC(COc1cccc2ccccc12)CN1CCN(c2ccc(Cl)cc2)CC1` (centres undefined), the GI50 is 22.6 µM in the assay with SF-539 CNS; 13.8 µM with NCI-H226 lung; 38.9 µM in the assay on DU-145 prostate; 17 µM in the assay on SNB-19 CNS; 15.7 µM with NCI-H522 lung; 14.7 µM with SK-OV-3 ovarian. The GI50 is more than 100 µM with COLO 205 colon and 23.4 µM in the assay on HS 578T breast. For the same molecule, the TGI with SF-539 CNS was 68.5 µM; with NCI-H226 lung, 70.4 µM; in the assay on DU-145 prostate, more than 100 µM; in the assay with SNB-19 CNS it was 45.4 µM; with NCI-H522 lung, 43.5 µM; in the assay with SK-OV-3 ovarian it was 45.2 µM. The TGI with COLO 205 colon and in the assay with HS 578T breast was more than 100 µM in each case.
Turning to `O=C(CCc1ccco1)NC1CCN(CC2(c3ccc(Cl)cc3)CCC2)CC1`, the GI50 in the assay on SF-539 CNS was 13.4 µM; in the assay with NCI-H226 lung, 20.8 µM; in the assay with DU-145 prostate, 19.1 µM; with SNB-19 CNS it was 15.1 µM; in the assay on NCI-H522 lung, 14.6 µM; with SK-OV-3 ovarian, 16.9 µM. Further, the GI50 is 15.3 µM in the assay on COLO 205 colon and 13.6 µM with HS 578T breast. The TGI came to 26.6 µM in the assay with SF-539 CNS; 60.2 µM in the assay with NCI-H226 lung; 41.3 µM with DU-145 prostate; 30.7 µM with SNB-19 CNS; 30 µM with NCI-H522 lung; 32.9 µM in the assay on SK-OV-3 ovarian. For the same molecule, the results for the TGI in the assay with COLO 205 colon and in the assay on HS 578T breast were 31.8 µM and 31.4 µM, respectively.
On to `C[C@@H]1[C@H]2[C@H](C=C3[C@@H]4CC[C@H]5Cc6nc7c(nc6C[C@]5(C)[C@H]4C[C@@H](O)[C@@]32C)C[C@@H]2CC[C@H]3C4=C[C@@H]5O[C@@]6(CC[C@](C)(CO)O6)[C@@H](C)[C@@]5(O)[C@@]4(C)[C@H](O)C[C@@H]3[C@@]2(C)C7)O[C@]12CCC(C)(C)O2`, for which the GI50 with SF-539 CNS was 0.114 µM; in the assay on NCI-H226 lung, 3.33 µM; in the assay with DU-145 prostate it was 2.87 µM; in the assay on SNB-19 CNS it was 0.653 µM; in the assay with NCI-H522 lung, 2.26 µM; in the assay on SK-OV-3 ovarian, 0.472 µM. Besides, the GI50 is 0.292 µM in the assay with COLO 205 colon and 0.165 µM in the assay on HS 578T breast. The TGI came out at 4.08 µM in the assay on SF-539 CNS; 35.6 µM with NCI-H226 lung; 37.2 µM in the assay on DU-145 prostate; 7.28 µM in the assay on SNB-19 CNS; 11.8 µM in the assay with NCI-H522 lung; 5.29 µM with SK-OV-3 ovarian. The TGI amounted to 0.926 µM in the assay with COLO 205 colon and 0.89 µM in the assay with HS 578T breast.
